Holding throughout (format): physicochemical
A short description of data set [1]: Hygroscopicity assessment by dynamic water vapor sorption/desorption analysis (DVS). The settings on record: for sample mass uptake: 25°C; for hygroscopic character: criteria: 2% maximum uptake at 60% relative humidity. The protocol:
The dynamic vapor sorption (DVS) analysis with water is performed on a DVS-Intrinsic incubator from SMS Ltd, equipped with DVS-Intrinsic Control Software 1.0. A sample weight of about 8 to 10mg, placed in an aluminum pan holder, is submitted to a full cycle analysis (sorption followed by desorption) in a dm/dt mode according to the conditions described in Table 6 below. Table 6 [table] The sample obtained after crystallization protocol is pre-dried under a stream of dry filtered air until a stable weight is obtained. Next, relative humidity is increased by 5% increments. For each step, the sample mass is allowed to increase until equilibrium is reached (dm/dt criterion), and then a new relative humidity rise occurs. […] After equilibration at this point, desorption begins in a similar stepwise fashion, with sample weight again allowed to stabilize after each incremental humidity decrease. For each segment of the method described above, the recording of the sample mass allows describing of the whole sorption/desorption behavior versus relative humidity. The hygroscopic character of the two crystal forms has been investigated as described above.

Data set [2] can be described thus: Solubility assessment of the two crystal forms (solubilized free base concentration over time in pH 7.4 buffer, HPLC). The settings on record: for solubility: pH 7.4. As to the method: The solubility of the two crystal forms have been characterized as described below: • A suspension is prepared in the buffer. Magnetic stirring is applied at 100 rpm.
The concentration of the free base in solution in buffer solution at pH 7.4 (38g Na2HPO4, 12 H2O + 3,8g NaH2PO4, 2 H2O completed to 1L with de-ionized water) is determined after 30 min, […], 2h, 4h, 6h and 24h at ambient temperature protected from light. For that purpose, the samples are withdrawn and filtered on filter Millex PVDF 0.22µm (diameter=13mm) and diluted in water/acetonitrile 50/50 (v/v) in order to reach a concentration in the range of standard solutions concentrations. Two separated dilutions are performed for each sample and the final result is the mean of these two dilutions results. The concentration of the solubilized fraction is determined by HPLC by a short gradient reverse phase standard method with UV-diode array detection solution.
The following tables display the solubilized freebase concentrations as a function of time at pH 7.4 (Table 10) at 20°C (samples protected from light) for: - Form A : crystalline freebase (sample 2), - Form B : crystalline freebase (sample 1).

Assay in data set [3]: as above
Particulars: pH 7.4, 20°C, protected from light.

The nature of data set [4]: Solubility assessment in pH 1 HCl/KCl buffer (saturation, 24 hours at 20°C, HPLC). The settings on record: pH 1, simulated gastric fluid, thermodynamic from solid. As to the method:
The solubility of the HC1 salt and of the free base was compared in a pH1 HC1/KC1 buffer and in a pH 7.4 phosphate buffer. For each medium, the saturation of the medium is obtained by adding an excess of active ingredient to a given volume of test medium. The suspension is stirred over 24 hours at 20°C, protected from light. The supernatant is then isolated by centrifugation, diluted in a solvent mixture allowing its injection into the chromatographic system. The compound concentration in solution for each medium is determined by external standardization and HPLC under the conditions detailed in Table3 below. Solubility was tested over a range from 1 µg/mL up to 1 mg/mL.

≈ marks a conversion by molar mass, not a printed value. Entries after “also recorded” stand apart in the source; their conditions may differ. Like-named read-outs stand apart in the source and are kept apart here.

Data on three compounds can be found in patent publication EP3098220A1, “PROCESS FOR THE PREPARATION OF A NADPH OXIDASE INHIBITOR AND ITS POLYMORPHS AND USES THEREOF” (GenKyoTex SA, priority 2015, dated 2016).

For `CN(C)c1cccc(-c2c3c(=O)n(-c4ccccc4Cl)[nH]c3cc(=O)n2C)c1` [free base, 2-(2-chlorophenyl)-4-[3-(dimethylamino)phenyl]-5-methyl-1H-pyrazolo[4,3-c] pyridine-3,6(2H,5H)-dione], the sample mass uptake in data set [1] (60% relative humidity) came to 0.2%; in data set [1] (95% relative humidity) it was 0.3%. Moreover, the hygroscopic character result in data set [1] was “non-hygroscopic”.

Regarding `CN(C)c1cccc(-c2c3c(=O)n(-c4ccccc4Cl)[nH]c3cc(=O)n2C)c1` [Form A, 2-(2-chlorophenyl)-4-[3-(dimethylamino)phenyl]-5-methyl-1H-pyrazolo[4,3-c] pyridine-3,6(2H,5H)-dione], in data set [2], the solubility came out at 500 µg/mL (≈ 1270 µM). For the same compound, the solubility at 30 min in data set [2] (phosphate buffer, 20 °C, pH 7.4, aqueous buffer, thermodynamic from solid, pH 7.4, 20°C, protected from light, 30min, read-out: Solubilized fraction) came out at 330 µg/mL (≈ 836 µM). Further, the solubility at 2 h in data set [2] (phosphate buffer, 20 °C, pH 7.4, aqueous buffer, thermodynamic from solid, pH 7.4, 20°C, protected from light, 2h, read-out: Solubilized fraction) was found to be 370 µg/mL (≈ 937 µM). In addition, in data set [2] (phosphate buffer, 20 °C, pH 7.4, aqueous buffer, thermodynamic from solid, pH 7.4, 20°C, protected from light, 4h, read-out: Solubilized fraction), the solubility at 4 h came out at 390 µg/mL (≈ 988 µM). For the same compound, the solubility at 6 h in data set [2] (phosphate buffer, 20 °C, pH 7.4, aqueous buffer, thermodynamic from solid, pH 7.4, 20°C, protected from light, 6h, read-out: Solubilized fraction) was determined as 400 µg/mL (≈ 1010 µM). For the same compound, the solubility at 24 h in data set [2] (phosphate buffer, 20 °C, pH 7.4, aqueous buffer, thermodynamic from solid, pH 7.4, 20°C, protected from light, 24 h, read-out: Solubilized fraction) came to 510 µg/mL (≈ 1290 µM). Moreover, the values for the sample mass uptake in data set [1] (60% relative humidity) and in data set [1] (95% relative humidity) were 0.2% and 0.3%, respectively. In data set [3] (phosphate buffer, 20 °C, pH 7.4, aqueous buffer, thermodynamic from solid, read-out: Solubilized fraction), the solubility at 1 h amounted to 350 µg/mL (≈ 886 µM).

The compound `CN(C)c1cccc(-c2c3c(=O)n(-c4ccccc4Cl)[nH]c3cc(=O)n2C)c1` [Form B, 2-(2-chlorophenyl)-4-[3-(dimethylamino)phenyl]-5-methyl-1H-pyrazolo[4,3-c] pyridine-3,6(2H,5H)-dione] registered a solubility at 24 h in data set [4] above 30000 µg/mL. Besides, the Solubilized fraction in data set [2] (pH 7.4, 20°C, protected from light, 30min) was 0.23 mg/mL; in data set [2] (pH 7.4, 20°C, protected from light, 2h) it was 0.26 mg/mL; in data set [2] (pH 7.4, 20°C, protected from light, 4h) it was 0.27 mg/mL; in data set [2] (pH 7.4, 20°C, protected from light, 6h), 0.28 mg/mL; in data set [2] (pH 7.4, 20°C, protected from light, 24 h), 0.26 mg/mL; in data set [3] (1h) it was 0.25 mg/mL. In data set [2] (phosphate buffer, 20 °C, pH 7.4, aqueous buffer, thermodynamic from solid, read-out: Solubility), the solubility amounted to 300 µg/mL (≈ 760 µM). Further, the hygroscopic character result in data set [1] is “non-hygroscopic; also recorded: not hygroscopic”. In addition, the “mass loss upon drying” value in data set [1] (drying at 0%RH) was found to be 0.2%.
